# Assay results reported in article PMC10938783, “A novel pan-PI3K inhibitor KTC1101 synergizes with anti-PD-1 therapy by targeting tumor suppression and immune activation” (Molecular Cancer, 2024).
# Experiments:
# Type in all cases: in vivo, mouse
# S24 tumors = experiment: S24 syngeneic model in C57BL/6 mice; conditions: S24 in WT C57BL/6 mice, 100 mg/kg daily oral gavage
# Procedure: To generate syngeneic mouse models, S24 and B16 cells were subcutaneously injected into the right lateral flank of 4- to 5-week-old male C57BL/6 mice. Tumors were allowed to grow to a volume of 100 mm^3, and then the animals were randomly divided into several groups. For S24 tumor-bearing mice, each group of five mice was treated with either vehicle or KTC1101 (100 mg/kg, PO). Tumor size was measured every 3 d or 4 d until the endpoint. For B16 tumor-bearing mice, each group of five mice was treated with either vehicle, KTC1101 (50 or 100 mg/kg, PO), anti-PD-1 antibody (250 μg per mouse, clone RPM1-14, Bio X cell, IP), or KTC1101 and anti-PD-1 antibody. Tumor size was monitored every other day, and the tumor was harvested at indicated time points for analysis of tumor-infiltrating lymphocytes. The tumor volume was calculated using the following formula: length × width × height/2.
# [1] = test system: B16 tumor tissue gene expression; experiment: RNA-Seq (DEGs, GSEA, GSVA, CIBERSORT) of B16 tumors after KTC1101; conditions: 100 mg/kg for 3 days
# Description: Total RNA was isolated using TRIzol reagent.
# Cell-type Identification by Estimating Relative Subsets of RNA Transcripts (CIBERSORT) was used to perform a deconvolution analysis of the gene expression matrix based on the principle of linear […]. The CIBERSORT algorithm, with a reference to 511 mouse gene signatures, categorized immune cell populations into seven groups and calculated composition scores: B cells including memory, naive, and plasma cells; CD8^+ T cells including memory, naive, and activated cells; CD4^+ T cells including memory, naive, follicular, Th1, Th2, and Th17 cells; DCs including activated and immature cells; the rest being mast cells, Tregs, and monocytes.
# p-Akt, p-S6, Ki67 = experiment: H&E and immunohistochemical staining of xenograft tumors; conditions: IHC, PC3 and TMD8 xenografts
# Procedure: H&E and IHC staining were performed as previously described. H&E staining was used to detect pathological changes in morphology. For histological analysis, formalin-fixed, paraffin-embedded tumors were sectioned, and slides were deparaffinized using xylene (Thermo Fisher). Endogenous peroxidases were quenched with 3% hydrogen peroxide in methanol. Staining was performed using antibodies against phosphorylated Akt (Ser473), phosphorylated S6 (Ser235/236), or Ki67. Counterstaining was performed with Mayer’s hematoxylin (Dako). Slides were observed under an Olympus CX21 microscope and scanned with a high-resolution digital slide scanner (Pannoramic 250, 3DHistech) to capture images.
structure (smiles),measurement,setting,value
"COc1cc(N)cc2c1nc(C(F)F)n2-c1nc(N2CCCOCC2)nc(N2CCOCC2)n1 [KTC1101, 2-(difluoromethyl)-4-methoxy-1-(4-morpholino-6-(1,4-oxazepan-4-yl)-1,3,5-triazin-2-yl)-1H-benzo[d]imidazol-6-amine]",time until relapse was detected,S24 tumors,18 days
same,"immune-related pathways (GSEA, GSVA)",[1],prominently upregulated
same,Ki67 expression in tumor tissues,"p-Akt, p-S6, Ki67",notable reduction in Ki67 expression
same,phosphorylation of AKT in tumor tissues,"p-Akt, p-S6, Ki67",decreased phosphorylation of AKT
